Data taken from ChEMBL document CHEMBL1201862, “PubChem BioAssay data set” (2004).
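Assay format: 96-well plates, 48-hour exposure. The concentration for 50% growth inhibition is given as GI50.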 Calls of active or inactive are those of the source. No stated cut-off is given here; in the data, active = GI50 up to about 1.1 µM and inactive = higher.

How the values were obtained:
Assay in all cases: NCI-60 cell line screen, 48 h
UACC-257 = tested on: UACC-257
786-0 = tested on: 786-0
NCI-H522 = tested on: NCI-H522
CAKI-1 = tested on: CAKI-1
HCT-15 = tested on: HCT-15
OVCAR-3 = tested on: OVCAR-3
HCT-116 = tested on: HCT-116
K562 = tested on: K562
RXF 393 = tested on: RXF 393
PC-3 = tested on: PC-3
MCF7 = tested on: MCF7
OVCAR-8 = tested on: OVCAR-8
A549 = tested on: A549
ACHN = tested on: ACHN
SK-MEL-28 = tested on: SK-MEL-28
SW-620 = tested on: SW-620
SR = tested on: SR
LOX IMVI = tested on: LOX IMVI
T47D = tested on: T47D
NCI-H226 = tested on: NCI-H226
KM12 = tested on: KM12
MOLT-4 = tested on: MOLT-4
SK-MEL-5 = tested on: SK-MEL-5
U-251 = tested on: U-251
NCI/ADR-RES = tested on: NCI/ADR-RES
UO-31 = tested on: UO-31
SNB-19 = tested on: SNB-19
MDA-N = tested on: MDA-N
M14 = tested on: M14
A498 = tested on: A498
IGROV-1 = tested on: IGROV-1
SF-539 = tested on: SF-539
OVCAR-5 = tested on: OVCAR-5
HT-29 = tested on: HT-29
SN12C = tested on: SN12C
SNB-75 = tested on: SNB-75
OVCAR-4 = tested on: OVCAR-4
HCC 2998 = tested on: HCC 2998
CCRF-CEM = tested on: CCRF-CEM
DU-145 = tested on: DU-145
TK-10 = tested on: TK-10
Malme-3M = tested on: Malme-3M
HOP-92 = tested on: HOP-92
SF-295 = tested on: SF-295
HOP-62 = tested on: HOP-62
NCI-H460 = tested on: NCI-H460
RPMI-8226 = tested on: RPMI-8226
HL-60 = tested on: HL-60
NCI-H23 = tested on: NCI-H23
SF-268 = tested on: SF-268
Hs-578T = tested on: Hs-578T
MDA-MB-435 = tested on: MDA-MB-435
EKVX = tested on: EKVX
MDA-MB-231 = tested on: MDA-MB-231
SK-MEL-2 = tested on: SK-MEL-2
UACC-62 = tested on: UACC-62
SK-OV-3 = tested on: SK-OV-3
COLO 205 = tested on: COLO 205
BT-549 = tested on: BT-549

## CCOC(=O)C1(N)CC1
UACC-257
  GI50: > 100 µM (inactive)
786-0
  GI50: > 100 µM (inactive)
NCI-H522
  GI50: > 100 µM (inactive)
CAKI-1
  GI50: > 100 µM (inactive)
HCT-15
  GI50: > 100 µM
OVCAR-3
  GI50: > 100 µM (inactive)
HCT-116
  GI50: > 100 µM (inactive)
K562
  GI50: > 100 µM (inactive)
RXF 393
  GI50: > 100 µM (inactive)
PC-3
  GI50: 71 µM (inactive)
MCF7
  GI50: > 100 µM (inactive)
OVCAR-8
  GI50: > 100 µM (inactive)
A549
  GI50: > 100 µM (inactive)
ACHN
  GI50: > 100 µM (inactive)
SK-MEL-28
  GI50: > 100 µM (inactive)
SW-620
  GI50: > 100 µM (inactive)
SR
  GI50: > 100 µM (inactive)
LOX IMVI
  GI50: > 100 µM (inactive)
T47D
  GI50: 56.8 µM (inactive)
NCI-H226
  GI50: > 100 µM (inactive)
KM12
  GI50: > 100 µM (inactive)
MOLT-4
  GI50: > 100 µM (inactive)
SK-MEL-5
  GI50: > 100 µM (inactive)
U-251
  GI50: > 100 µM (inactive)
NCI/ADR-RES
  GI50: > 100 µM (inactive)
UO-31
  GI50: > 100 µM (inactive)
SNB-19
  GI50: > 100 µM (inactive)
MDA-N
  GI50: > 100 µM (inactive)
M14
  GI50: > 100 µM (inactive)
A498
  GI50: > 100 µM (inactive)
IGROV-1
  GI50: > 100 µM (inactive)
SF-539
  GI50: > 100 µM (inactive)
OVCAR-5
  GI50: > 100 µM (inactive)
HT-29
  GI50: > 100 µM (inactive)
SN12C
  GI50: > 100 µM (inactive)
SNB-75
  GI50: > 100 µM (inactive)
OVCAR-4
  GI50: > 100 µM (inactive)
HCC 2998
  GI50: > 100 µM (inactive)
CCRF-CEM
  GI50: > 100 µM (inactive)
DU-145
  GI50: > 100 µM (inactive)
TK-10
  GI50: > 100 µM (inactive)
Malme-3M
  GI50: > 100 µM (inactive)
HOP-92
  GI50: > 100 µM (inactive)
SF-295
  GI50: > 100 µM (inactive)
HOP-62
  GI50: > 100 µM (inactive)
NCI-H460
  GI50: > 100 µM (inactive)
RPMI-8226
  GI50: > 100 µM (inactive)
HL-60
  GI50: > 100 µM (inactive)
NCI-H23
  GI50: > 100 µM (inactive)
SF-268
  GI50: > 100 µM (inactive)
Hs-578T
  GI50: > 100 µM (inactive)
MDA-MB-435
  GI50: > 100 µM (inactive)
EKVX
  GI50: > 100 µM (inactive)
MDA-MB-231
  GI50: > 100 µM (inactive)

## Cc1ccc(O)c(/N=N\c2c(O)cc(S(=O)(=O)O)c3ccccc23)c1
SK-MEL-2
  GI50: 29.7 µM (inactive)
UACC-257
  GI50: 94.6 µM (inactive)
786-0
  GI50: 57.5 µM (inactive)
CAKI-1
  GI50: 63.4 µM (inactive)
HCT-15
  GI50: 43.6 µM
OVCAR-3
  GI50: 22.5 µM (inactive)
HCT-116
  GI50: 25.5 µM (inactive)
K562
  GI50: 32.2 µM (inactive)
RXF 393
  GI50: > 100 µM (inactive)
PC-3
  GI50: 33.7 µM (inactive)
MCF7
  GI50: 41.1 µM (inactive)
OVCAR-8
  GI50: 26.2 µM (inactive)
A549
  GI50: 54.6 µM (inactive)
ACHN
  GI50: 40.5 µM (inactive)
SK-MEL-28
  GI50: 45.3 µM (inactive)
SW-620
  GI50: 45.2 µM (inactive)
SR
  GI50: 17.8 µM (inactive)
NCI-H226
  GI50: 14.1 µM (inactive)
KM12
  GI50: 21.8 µM (inactive)
MOLT-4
  GI50: 26.5 µM (inactive)
UACC-62
  GI50: 25.7 µM (inactive)
SK-MEL-5
  GI50: 20.7 µM (inactive)
U-251
  GI50: 61.8 µM (inactive)
NCI/ADR-RES
  GI50: 24.3 µM (inactive)
UO-31
  GI50: 17.3 µM (inactive)
M14
  GI50: 24.6 µM (inactive)
IGROV-1
  GI50: 40.3 µM (inactive)
SF-539
  GI50: 62.5 µM (inactive)
SK-OV-3
  GI50: 51.4 µM (inactive)
OVCAR-5
  GI50: 45.6 µM (inactive)
HT-29
  GI50: 61.5 µM (inactive)
OVCAR-4
  GI50: 66.1 µM (inactive)
HCC 2998
  GI50: > 100 µM (inactive)
CCRF-CEM
  GI50: 23.1 µM (inactive)
TK-10
  GI50: > 100 µM (inactive)
Malme-3M
  GI50: 25.2 µM (inactive)
HOP-92
  GI50: > 100 µM (inactive)
COLO 205
  GI50: 67.6 µM (inactive)
SF-295
  GI50: 34.6 µM (inactive)
HOP-62
  GI50: 57.4 µM (inactive)
NCI-H460
  GI50: 35.6 µM (inactive)
RPMI-8226
  GI50: 37.9 µM (inactive)
BT-549
  GI50: 81.7 µM (inactive)
HL-60
  GI50: 16.4 µM (inactive)
SF-268
  GI50: > 100 µM (inactive)
Hs-578T
  GI50: > 100 µM (inactive)
MDA-MB-435
  GI50: 56.9 µM (inactive)
EKVX
  GI50: 96.4 µM (inactive)
MDA-MB-231
  GI50: 25.4 µM (inactive)
